Assay results published in ChEMBL document CHEMBL5360641, “4'-Ethynyl-2'-deoxy-2'-β-fluoro-2-fluoroadenosine: A Highly Potent and Orally Available Clinical Candidate for the Treatment of HIV-1 Infection” (J Med Chem, 2023).

Experiments:
[1] = AUC (0 to t) in male Sprague-Dawley rat at 10 mg/kg, IG measured at 24 hrs LC-MS/MS analysis; type: ADME, organism-based; design: dose 10 mg/kg, time 24 hrs, route ig; settings: in vivo, po
[2] = system: Human immunodeficiency virus 1; assay: Antiviral activity against HIV1 IIIB infected in human MT4 cells assessed as inhibition of viral replication incubated for 3 to 7 days by MTT analysis; type: functional, organism-based; settings: Human immunodeficiency virus 1, IIIB
[3] = AUC (0 to t) in Sprague-Dawley rat at 2.5 mg/kg, IG measured upto 24 hrs by LC-MS/MS analysis; type: ADME, organism-based; design: time < 24 hrs, dose 2.5 mg/kg, route ig; settings: in vivo, po
[4] = Cmax in Sprague-Dawley rat at 10 mg/kg, IG measured upto 24 hrs by LC-MS/MS analysis; type: ADME, organism-based; design: time < 24 hrs, dose 10 mg/kg, route ig; settings: in vivo, po
[5] = Half life in Sprague-Dawley rat at 5 mg/kg, IG measured upto 24 hrs by LC-MS/MS analysis; type: ADME, organism-based; settings: in vivo, po
[6] = system: Human immunodeficiency virus 1; assay: Antiviral activity against HIV1 IIIB infected in human C8166 cells assessed as inhibition of viral replication by measuring reduction in p24 antigen level incubated for 3 to 7 days by ELISA analysis; type: functional, organism-based; settings: Human immunodeficiency virus 1, IIIB
[7] = AUC (0 to t) in male Sprague-Dawley rat at 10 mg/kg, IG measured at 0.5 hrs LC-MS/MS analysis; type: ADME, organism-based; design: dose 10 mg/kg, time 0.5 hrs, route ig; settings: in vivo, po
[8] = Bioavailability in Sprague-Dawley rat at 10 mg/kg, IG measured upto 24 hrs by LC-MS/MS analysis; type: ADME, organism-based; settings: in vivo, po
[9] = Acute toxicity in Sprague-Dawley rat assessed as effect on spleen damage at 500 to 2000 mg/kg, IG measured on day 15; type: organism-based; settings: in vivo, po, 360 h, dose 500-2000 mg/kg, time 15 day
[10] = Cmax in Sprague-Dawley rat at 2.5 mg/kg, IG measured upto 24 hrs by LC-MS/MS analysis; type: ADME, organism-based; design: time < 24 hrs, dose 2.5 mg/kg, route ig; settings: in vivo, po
[11] = AUC (0 to t) in male Sprague-Dawley rat at 100 mg/kg, IG measured at 0.5 hrs LC-MS/MS analysis; type: ADME, organism-based; design: dose 100 mg/kg, time 0.5 hrs, route ig; settings: in vivo, po
[12] = AUC (0 to t) in male Sprague-Dawley rat at 30 mg/kg, IG measured at 24 hrs LC-MS/MS analysis; type: ADME, organism-based; design: time 24 hrs, dose 30 mg/kg, route ig; settings: in vivo, po
[13] = Toxicity in po dosed Sprague-Dawley rat assessed as NOAEL administered once daily for 4 weeks and measured after 24 hrs post last dose; type: organism-based; settings: in vivo
[14] = Cytotoxicity against HEK293T cells assessed as reduction in cell viability by MTT assay; type: toxicity, cell-based, HEK-293T; settings: human
[15] = Tmax in Sprague-Dawley rat at 10 mg/kg, IG measured upto 24 hrs by LC-MS/MS analysis; type: ADME, organism-based; settings: in vivo, po
[16] = Bioavailability in Sprague-Dawley rat at 5 mg/kg, IG measured upto 24 hrs by LC-MS/MS analysis; type: ADME, organism-based; settings: in vivo, po
[17] = AUC (0 to t) in female Sprague-Dawley rat at 10 mg/kg, IG measured at 24 hrs LC-MS/MS analysis; type: ADME, organism-based; design: time 24 hrs, dose 10 mg/kg, route ig; settings: in vivo, po
[18] = Toxicity in Sprague-Dawley rat assessed as effect on food consumption at 10 to 30 mg/kg, po administered once daily for 4 weeks and measured after 24 hrs post last dose; type: organism-based; settings: in vivo, 696 h, dose 10-30 mg/kg
[19] = Half life in Sprague-Dawley rat at 10 mg/kg, IG measured upto 24 hrs by LC-MS/MS analysis; type: ADME, organism-based; settings: in vivo, po
[20] = Apparent oral clearance in Sprague-Dawley rat at 5 mg/kg, IG measured upto 24 hrs by LC-MS/MS analysis; type: ADME, organism-based; settings: in vivo
[21] = Tmax in Sprague-Dawley rat at 2.5 mg/kg, IG measured upto 24 hrs by LC-MS/MS analysis; type: ADME, organism-based; settings: in vivo, po
[22] = Half life in Sprague-Dawley rat at 2.5 mg/kg, IG measured upto 24 hrs by LC-MS/MS analysis; type: ADME, organism-based; settings: in vivo, po
[23] = AUC (0 to t) in Sprague-Dawley rat at 5 mg/kg, IG measured upto 24 hrs by LC-MS/MS analysis; type: ADME, organism-based; design: time < 24 hrs, dose 5 mg/kg, route ig; settings: in vivo, po
[24] = Toxicity in Sprague-Dawley rat assessed as effect on body weight at 10 to 30 mg/kg, po administered once daily for 4 weeks and measured after 24 hrs post last dose; type: organism-based; settings: in vivo, 696 h, dose 10-30 mg/kg
[25] = AUC (0 to t) in female Sprague-Dawley rat at 100 mg/kg, IG measured at 0.5 hrs LC-MS/MS analysis; type: ADME, organism-based; design: time 0.5 hrs, dose 100 mg/kg, route ig; settings: in vivo, po
[26] = Acute toxicity in Sprague-Dawley rat assessed as effect on liver damage at 500 to 2000 mg/kg, IG measured on day 15; type: organism-based; settings: in vivo, po, 360 h, dose 500-2000 mg/kg, time 15 day
[27] = system: Human immunodeficiency virus 1; assay: Antiviral activity against HIV1 KIZ001 infected in human PBMC assessed as inhibition of viral replication by measuring reduction in p24 antigen level incubated for 3 to 7 days by ELISA analysis; type: functional, organism-based; settings: Human immunodeficiency virus 1, KIZ001, PBMC
[28] = Apparent […] clearance in Sprague-Dawley rat at 5 mg/kg, iv measured upto 24 hrs by LC-MS/MS analysis; type: ADME, organism-based; settings: in vivo
[29] = AUC (0 to t) in female Sprague-Dawley rat at 100 mg/kg, IG measured at 24 hrs LC-MS/MS analysis; type: ADME, organism-based; design: time 24 hrs, dose 100 mg/kg, route ig; settings: in vivo, po
[30] = Bioavailability in Sprague-Dawley rat at 2.5 mg/kg, IG measured upto 24 hrs by LC-MS/MS analysis; type: ADME, organism-based; settings: in vivo, po
[31] = system: Human immunodeficiency virus 1; assay: Antiviral activity against HIV1 TC-1 infected in human PBMC assessed as inhibition of viral replication by measuring reduction in p24 antigen level incubated for 3 to 7 days by ELISA analysis; type: functional, organism-based; settings: Human immunodeficiency virus 1, TC-1, PBMC
[32] = Apparent oral clearance in Sprague-Dawley rat at 10 mg/kg, IG measured upto 24 hrs by LC-MS/MS analysis; type: ADME, organism-based; settings: in vivo

## C#C[C@]1(CO)O[C@@H](n2cnc3c(N)nc(F)nc32)[C@@H](F)[C@@H]1O
[1]
  AUC(0-t) at 24 h: 8150 ng·h/mL
[2]
  EC50: 1.22 nM
[3]
  AUC(0-t) at 24 h: 1720 ng·h/mL
[4]
  Cmax: 2110 ng/mL
[5]
  half-life: 3.2 h
[6]
  EC50: 6.5 nM
[7]
  AUC(0-t) at 0.5 h: 6860 ng·h/mL
[8]
  bioavailability: 76.3%
[9]
  Activity: Non-Toxic
[10]
  Cmax: 630 ng/mL
[11]
  AUC(0-t) at 0.5 h: 89300 ng·h/mL
[12]
  AUC(0-t) at 24 h: 27100 ng·h/mL
[13]
  NOAEL at 696 h: 30 mg/kg
[14]
  CC50: > 100000 nM
[15]
  Tmax: 1 h
[16]
  bioavailability: 67.5%
[17]
  AUC(0-t) at 24 h: 6800 ng·h/mL
[18]
  Activity: Non-Toxic
[19]
  half-life: 2.3 h
[20]
  CL/F: 25 mL/min/kg
[21]
  Tmax: 0.63 h
[22]
  half-life: 2 h
[23]
  AUC(0-t) at 24 h: 3630 ng·h/mL
[24]
  Activity: Non-Toxic
[25]
  AUC(0-t) at 0.5 h: 87400 ng·h/mL
[26]
  Activity: Non-Toxic
[27]
  EC50: 1.87 nM
[28]
  CL/F: 16.4 mL/min/kg
[29]
  AUC(0-t) at 24 h: 82500 ng·h/mL
[30]
  bioavailability: 64.2%
[31]
  EC50: 6.3 nM
[32]
  CL/F: 21.2 mL/min/kg
